Experimental data taken from patent publication US20050118290A1, “Compositions and method for treatment of steroid/nuclear receptor-mediated diseases” (University of Singapore, priority 2003, published 2005).

Tests used:
[1] = target: T1, human androgen receptor (Homo sapiens, UniProt P10275); assay: AR (ARE)2-Luc luciferase reporter gene assay in HeLa cells; format: cell-based
T1 construct: expressed in transfected cells; host or cells: HeLa
T1 sequence (P10275 1-920): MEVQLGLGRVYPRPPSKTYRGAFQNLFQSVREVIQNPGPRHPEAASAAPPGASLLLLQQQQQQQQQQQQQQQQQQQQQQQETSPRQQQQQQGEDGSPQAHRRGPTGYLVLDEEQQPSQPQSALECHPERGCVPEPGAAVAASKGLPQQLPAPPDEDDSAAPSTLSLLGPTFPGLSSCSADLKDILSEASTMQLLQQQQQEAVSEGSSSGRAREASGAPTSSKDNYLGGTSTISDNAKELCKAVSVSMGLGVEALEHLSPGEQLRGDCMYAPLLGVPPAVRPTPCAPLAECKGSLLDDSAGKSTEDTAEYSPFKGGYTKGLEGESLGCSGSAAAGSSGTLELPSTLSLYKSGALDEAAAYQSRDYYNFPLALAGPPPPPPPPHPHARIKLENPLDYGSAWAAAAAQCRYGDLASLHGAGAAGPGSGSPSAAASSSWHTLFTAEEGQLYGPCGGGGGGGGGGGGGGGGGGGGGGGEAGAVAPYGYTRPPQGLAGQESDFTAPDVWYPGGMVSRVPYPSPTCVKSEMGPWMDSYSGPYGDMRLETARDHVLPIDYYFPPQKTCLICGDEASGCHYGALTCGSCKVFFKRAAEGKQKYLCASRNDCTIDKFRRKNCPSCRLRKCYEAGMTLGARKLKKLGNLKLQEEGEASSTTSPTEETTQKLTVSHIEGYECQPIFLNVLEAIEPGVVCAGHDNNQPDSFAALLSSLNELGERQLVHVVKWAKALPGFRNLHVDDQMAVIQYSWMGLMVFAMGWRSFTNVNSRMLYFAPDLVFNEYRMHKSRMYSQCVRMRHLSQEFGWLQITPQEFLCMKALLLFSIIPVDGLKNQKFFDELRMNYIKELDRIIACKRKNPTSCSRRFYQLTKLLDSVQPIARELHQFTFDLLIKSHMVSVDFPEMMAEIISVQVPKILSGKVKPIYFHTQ
Protocol: The capacity of HQ extract to activate other steroid receptors, namely AR, PR, GR, ERα and ERβ was examined. […] The (ARE)2-Luc plasmid consist of two repeats of Androgen Response Element (ARE) cloned upstream of the Luciferase Reporter gene in a pGL3-Basic vector (Promega).
(§1) AR, PR, GR and ERα and […] were determined by comparing luciferase activity in test cells with control cells exposed to vehicle (i.e., ethanol or methanol) only, analogous to the determination of PPAR activity as described in the previous examples.

[2] = target: T2, human estrogen receptor ERβ (Homo sapiens, UniProt Q92731); assay: ERβ MMTV-ERE-LUC reporter gene assay in HeLa cells; format: cell-based; settings: for ERβ activity comparable to % maximal activity of Estradiol / maximal fold increase in ERβ activity: 30×10^−6 g/ml
T2 construct: expressed in transfected cells; host or cells: HeLa
T2 sequence (Q92731 whole entry): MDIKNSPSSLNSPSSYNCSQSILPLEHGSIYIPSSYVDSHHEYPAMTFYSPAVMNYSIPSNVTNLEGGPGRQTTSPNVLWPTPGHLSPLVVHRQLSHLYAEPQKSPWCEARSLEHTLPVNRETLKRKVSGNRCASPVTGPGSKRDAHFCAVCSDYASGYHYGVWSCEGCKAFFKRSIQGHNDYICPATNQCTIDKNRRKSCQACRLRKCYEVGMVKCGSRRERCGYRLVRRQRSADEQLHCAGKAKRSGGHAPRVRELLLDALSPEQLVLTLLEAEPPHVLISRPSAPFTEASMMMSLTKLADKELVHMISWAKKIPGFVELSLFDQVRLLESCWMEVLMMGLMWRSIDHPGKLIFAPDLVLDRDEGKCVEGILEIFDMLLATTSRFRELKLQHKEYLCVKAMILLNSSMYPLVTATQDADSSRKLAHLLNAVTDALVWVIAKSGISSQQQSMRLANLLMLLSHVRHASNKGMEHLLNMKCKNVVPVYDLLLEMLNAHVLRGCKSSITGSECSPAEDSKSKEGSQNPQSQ
Protocol: ERα and ERβ activity were assayed using plasmids encoding either ERα or ERβ co-transfected with the ERE-LUC reporter gene. To assay estrogen receptor agonist activity, HeLa cells were transiently co-transfected with two plasmids (Tcherepanova, et al., 2000) using Lipofectamine. The first plasmid comprised DNA encoding human estrogen receptor (either ERα or ERβ), and the second plasmid comprised an estrogen-driven reporter system comprising: a luciferase reporter gene (LUC) whose transcription is under the control of upstream regulatory elements comprising 4 copies of the vitellogenin estrogen response element (ERE) cloned into the Mouse Mammary Tumor Virus (MMTV) promoter (the full name of the reporter system being ‘MMTV-ERE-LUC’).
as §1

Luciferase activity (Fold over vehicle ± SE) AR/Dihydrotestosterone (1 × 10^−9M) ([1]; daidzein 5 ×10^−6 g/mL) [Fold] | Luciferase activity (Fold over vehicle ± SE) AR/Dihydrotestosterone (1 × 10^−9M) ([1]; daidzein 10 ×10^−6 g/mL) [Fold] | Luciferase activity (Fold over vehicle ± SE) AR/Dihydrotestosterone (1 × 10^−9M) ([1]; daidzein 20 ×10^−6 g/mL) [Fold] | ERβ activity comparable to % maximal activity of Estradiol [2] [%] | maximal fold increase in ERβ activity [2] [fold] | Luciferase activity (Fold over vehicle ± SE) AR/Dihydrotestosterone (1 × 10^−9M) ([1]; calycosin 3 ×10^−6 g/mL) [Fold] | Luciferase activity (Fold over vehicle ± SE) AR/Dihydrotestosterone (1 × 10^−9M) ([1]; calycosin 10 ×10^−6 g/mL) [Fold] | Luciferase activity (Fold over vehicle ± SE) AR/Dihydrotestosterone (1 × 10^−9M) ([1]; calycosin 30 ×10^−6 g/mL) [Fold] | increase of the activity of maximal doses of AR agonist ([1]; with dihydrotestosterone 1×10^−9M) [fold] | effect on ERβ activity of estradiol ([2]; 1 to 30×10^−6 g/mL + estradiol 1×10^−9M) | Luciferase activity (Fold over vehicle ± SE) ERβ/Estradiol (1 × 10^−9M) ([2]; calycosin 3 ×10^−6 g/mL) [Fold] | Luciferase activity (Fold over vehicle ± SE) ERβ/Estradiol (1 × 10^−9M) ([2]; calycosin 10 ×10^−6 g/mL) [Fold] | Luciferase activity (Fold over vehicle ± SE) ERβ/Estradiol (1 × 10^−9M) ([2]; calycosin 30 ×10^−6 g/mL) [Fold] | Compound
1703 ± 154 | 1684 ± 146 | 1547 ± 257 | ~200 | 29 | – | – | – | – | – | – | – | – | O=c1c(-c2ccc(O)cc2)coc2cc(O)ccc12 [daidzein]
– | – | – | ~400 | 100 | 1997 ± 96.1 | 4080 ± 5.67 | 4502 ± 995 | 5.8 | additive | 55.2 ± 1.21 | 65.1 ± 2.71 | 70.7 ± 3.61 | COc1ccc(-c2coc3cc(O)ccc3c2=O)cc1O [calycosin, 3′,7-Dihydroxy-4′-methoxyisoflavone]
